The record followed here is ChEMBL document CHEMBL6087487, “Discovery of a 2'-α-Fluoro-2'-β-C-(fluoromethyl) Purine Nucleotide Prodrug as a Potential Oral Anti-SARS-CoV-2 Agent” (J Med Chem, 2025).

By CC50 is commonly meant the concentration that lowers cell viability or growth by half. As usually defined, the Tmax is the time from dosing to the highest level. By inhibition is commonly meant the percentage by which the read-out fell short of the control. A word on the Cmax: it is the highest concentration seen after dosing.

A short description of series [1]: Cytotoxicity against African green monkey Vero E6 cells incubated for 72 hrs by CCK8 assay. The class given is toxicity, cell-based, Vero C1008. The settings on record: chlorocebus sabaeus. On the technique in general: Formazan colour is commonly taken as a measure of viable cells.
A short description of series [2]: Toxicity in K18-hACE2 transgenic mouse infected with SARS-CoV-2 Omicron BA.5 assessed as animal survival at 40 to 60 mg/kg compound administered 2 hrs post-infection and continued till 7 days post-infection. The class given is organism-based. The settings on record: in vivo, 166 h, dose 40-60 mg/kg.
Series [3] is described as follows: Acute toxicity in Sprague-Dawley rat assessed as hematological change at 500 to 2000 mg/kg, po measured for 14 days. The class given is organism-based. The conditions noted are these: in vivo, 336 h, dose 500-2000 mg/kg, time 14 day.
A short description of series [4]: Toxicity in K18-hACE2 transgenic mouse infected with SARS-CoV-2 Omicron BA.5 assessed as animal survival at 20 mg/kg compound administered 2 hrs post-infection and continued till 7 days post-infection. The series is classed as organism-based. The settings on record: in vivo, 166 h.
A short description of series [5]: Acute toxicity in Sprague-Dawley rat assessed as damage in spleen at 500 to 2000 mg/kg, po measured for 14 days by H and E staining based analysis. The class given is organism-based. The conditions noted are these: in vivo, 336 h, dose 500-2000 mg/kg, time 14 day.
The nature of series [6]: Acute toxicity in Sprague-Dawley rat assessed as animal mortality at 500 to 2000 mg/kg, po measured for 14 days. The series is classed as organism-based. The settings on record: in vivo, 336 h, dose 500-2000 mg/kg, time 14 day.
Series [7] is described as follows: Toxicity in K18-hACE2 transgenic mouse infected with SARS-CoV-2 Omicron BA.5 assessed as body weight change at 40 to 60 mg/kg compound administered 2 hrs post-infection and continued till 7 days post-infection. The class given is organism-based. The conditions noted are these: in vivo, 166 h, dose 40-60 mg/kg.
Series [8] in a line: Prodrug conversion in Sprague-Dawley rat assessed as Tmax of nucleoside triphosphate at 40 mg/kg, po measured after 0.5 to 24 hrs by LC-MS/MS analysis. The class given is ADME, organism-based. The conditions noted are these: in vivo, time 0.5-24 hrs.
A short description of series [9]: Prodrug conversion in Sprague-Dawley rat assessed as AUClast of nucleoside triphosphate at 40 mg/kg, po measured after 0.5 to 24 hrs by LC-MS/MS analysis. The series is classed as ADME, organism-based. The conditions noted are these: in vivo, time 0.5-24 hrs.
Series [10] is described as follows: Acute toxicity in Sprague-Dawley rat assessed as damage in kidney at 500 to 2000 mg/kg, po measured for 14 days by H and E staining based analysis. The series is classed as organism-based. The conditions noted are these: in vivo, 336 h, dose 500-2000 mg/kg, time 14 day.
Series [11] in a line: Cytotoxicity against HPAEpiC cells incubated for 72 hrs by CCK8 assay. The conditions noted are these: human. The class given is toxicity, cell-based.
Series [12] can be described thus: Acute toxicity in Sprague-Dawley rat assessed as side effects at 500 to 2000 mg/kg, po measured for 14 days. The conditions noted are these: in vivo, 336 h, dose 500-2000 mg/kg, time 14 day. The series is classed as organism-based.
The nature of series [13]: Acute toxicity in Sprague-Dawley rat assessed as body weight change at 500 to 2000 mg/kg, po measured for 14 days. The class given is organism-based. The settings on record: in vivo, 336 h, dose 500-2000 mg/kg, time 14 day.
The nature of series [14]: Acute toxicity in Sprague-Dawley rat assessed as damage in lung at 500 to 2000 mg/kg, po measured for 14 days by H and E staining based analysis. The class given is organism-based. The conditions noted are these: in vivo, 336 h, dose 500-2000 mg/kg, time 14 day.
Series [15] in a line: Prodrug conversion in Sprague-Dawley rat assessed as AUC (0 to infinity) of nucleoside triphosphate at 40 mg/kg, po measured after 0.5 to 24 hrs by LC-MS/MS analysis. The series is classed as ADME, organism-based. The conditions noted are these: in vivo, time 0.5-24 hrs.
The test system of the next series is SARS-CoV-2. Briefly: Antiviral activity against SARS-CoV-2 Omicron BA.5 infected in K18-hACE2 transgenic mouse assessed as protection against viral infection compound administered 2 hrs post-infection and continued till 7 days post-infection. The class given is functional, organism-based. The settings on record: Severe acute respiratory syndrome coronavirus 2, dose 20-60 mg/kg, time 166.0 hrs.

The nature of series [16]: Acute toxicity in Sprague-Dawley rat assessed as damage in heart at 500 to 2000 mg/kg, po measured for 14 days by H and E staining based analysis. The series is classed as organism-based. The settings on record: in vivo, 336 h, dose 500-2000 mg/kg, time 14 day.
Series [17] addresses Nucleoprotein (Severe acute respiratory syndrome coronavirus 2) (UniProt P0DTC9). The series can be described thus: Inhibition of SARS-CoV-2 N protein by Western blot analysis. The settings on record: dose 1-250 nM. On the technique in general: A western blot detects proteins with antibodies after separation by electrophoresis.
The nature of series [18]: Acute toxicity in Sprague-Dawley rat assessed as drug tolerance upto 2000 mg/kg, po measured for 14 days. The class given is organism-based. The settings on record: in vivo, 336 h, time 14 day.
A short description of series [19]: Acute toxicity in Sprague-Dawley rat assessed as damage in liver at 500 to 2000 mg/kg, po measured for 14 days by H and E staining based analysis. The settings on record: in vivo, 336 h, dose 500-2000 mg/kg, time 14 day. The series is classed as organism-based.
A short description of series [20]: Prodrug conversion in Sprague-Dawley rat assessed as half life of nucleoside triphosphate at 40 mg/kg, po measured after 0.5 to 24 hrs by LC-MS/MS analysis. The class given is ADME, organism-based. The settings on record: in vivo, time 0.5-24 hrs.
The nature of series [21]: Acute toxicity in Sprague-Dawley rat assessed as blood biochemical change at 500 to 2000 mg/kg, po measured for 14 days. The series is classed as organism-based. The settings on record: in vivo, 336 h, dose 500-2000 mg/kg, time 14 day.
Series [22] in a line: Prodrug conversion in Sprague-Dawley rat assessed as Cmax of nucleoside triphosphate at 40 mg/kg, po measured after 0.5 to 24 hrs by LC-MS/MS analysis. The class given is ADME, organism-based. The settings on record: in vivo, time 0.5-24 hrs.
The next series deals with Vero C1008. Briefly: Cytotoxicity against African green monkey Vero E6 cells at 100 uM incubated for 72 hrs by CCK8 assay. The series is classed as toxicity, cell-based. The settings on record: chlorocebus sabaeus, vero c1008, 72 h.
Series [23] has as its system Severe acute respiratory syndrome coronavirus 2. Briefly: Inhibition of SARS-CoV-2 central replication transcription complex of nsp12/nsp7/nsp8(2) using RNA template as substrate assessed as decrease in RdRp polymerization at 3 mM pretreated for 10 mins followed by NTP addition measured after 20 mins by RNA extension assay relative to control. The conditions noted are these: time 30.0 min.

Series [24] shares this test system. Briefly: Inhibition of SARS-CoV-2 central replication transcription complex of nsp12/nsp7/nsp8(2) using RNA template as substrate assessed as decrease in RdRp polymerization at 62.5 to 1000 uM by RNA extension assay. The settings on record: dose 62.5-1000 µM.

SMILES strings stand for the structures. Calls of active or inactive are those of the source. The rule behind the calls is not given here.

Consider `CCC(CC)COC(=O)[C@H](C)N[P@](=O)(OC[C@H]1O[C@@](C#N)(c2ccc3c(N)ncnn23)[C@H](O)[C@@H]1O)Oc1ccccc1` [REMDESIVIR], for which it took 42 µM to reach half-maximal cytotoxicity in series [1] (CC50 at 72 h).
On to `CNc1nc(N)nc2c1ncn2[C@@H]1O[C@H](CO[P@@](=O)(N[C@@H](C)C(=O)OC(C)C)Oc2ccccc2)[C@@H](O)[C@]1(F)CF.O=S(=O)(O)O`, for which the Survival was 100% in [2] and greater than 50% in series [4]. Also, the Activity entry in series [3], in [5], in series [6], in [7], in series [10] and in series [12] was “Non-toxic” in each case. For the same compound, the Activity entry in [13] was “Non-toxic”; in series [14] it was “Non-toxic”; with SARS-CoV-2, “Dose-dependent-effect”; in series [16], “Non-toxic”; in [18], “Non-toxic”; in [19] it was “Non-toxic”. Besides, the Activity entry (in series [21]; with Vero C1008) was “Non-toxic” throughout. Besides, the Tmax in series [8] came to 2.67 h. For the same compound, the AUClast in series [9] was 66.13 µg·h/g. Moreover, the CC50 at 72 h in series [11] was greater than 200 µM. In addition, the AUC in [15] amounted to 223 µg·h/g. In addition, the inhibition entry in [17] was “Dose-dependent-effect”. The t1/2 in [20] is 45.7 h. Moreover, the maximum concentration (Cmax) in [22] was determined as 6.5 µg/g.
Consider `CNc1nc(N)nc2c1ncn2[C@@H]1O[C@H](COP(=O)(O)OP(=O)(O)OP(=O)(O)OP(=O)(O)O)[C@@H](O)[C@]1(F)CF`, for which, in [23], the inhibition was 100%. In addition, in series [24], the inhibition entry was “inactive”.
